Measured values published in patent publication US6777402B2, “Water-soluble porphyrin derivatives for photodynamic therapy, their use and manufacture” (CeramOptec Industries, Inc., priority 2001, dated 2004).
Converted amounts (≈) assume the structure as drawn.

How the values were obtained:
[1] = Water solubility of salts with hydrophilic amines; details: as salts with hydrophilic amines
physchem = details: water

Row | Compound | water solubility compared with the respective chlorin e6 salts [1] | solubility (physchem) [µg/mL]
1 | C=Cc1c(C)c2cc3nc(c4c5[nH]c(cc6nc(cc1[nH]2)C(C)=C6CC)c(C)c5C(=O)OC4=O)[C@@H](CCC(=O)O)[C@@H]3C [(8), purpurin 18] | remarkably lower water solubility | 
2 | pheophorbide a [(4)] | remarkably lower water solubility | 
3 | CCC1=C(C)c2cc3[nH]c(cc4nc(c5c6[nH]c(cc1n2)c(C)c6C(=O)C5)[C@@H](CCC(=O)O)[C@@H]4C)c(C)c3CC [(36), mesopyropheophorbide a] |  | 40 (≈ 74.5 µM)
4 | C=Cc1c(C)c2cc3nc(c(CC(=O)O)c4[nH]c(cc5nc(cc1[nH]2)C(C)=C5CC)c(C)c4C(=O)O)[C@@H](CCC(=O)O)[C@@H]3C [(7), chlorin e6] |  | > 5000
5 | C=Cc1c(C)c2cc3nc(c(C(=O)O)c4[nH]c(cc5nc(cc1[nH]2)C(C)=C5CC)c(C)c4C(=O)O)[C@@H](CCC(=O)O)[C@@H]3C [(9), chlorin p6] | remarkably lower water solubility | 
